From patent US8975441B2, “Process for preparing 2.2-dibromomalonamide” (Dow Global Technologies LLC, priority 2009, dated 2015)

Format: physicochemical
Settings: pH 7
Excerpt: It has been discovered and is believed that the alkali earth metal base, which in some embodiments is part of the nitrile-amide-conversion composition, acts at basic pH values (i.e., at pH values greater than pH 7.0) to undesirably promote degradation of 2,2-dibromo-3-cyanoacetamide to undesirable products. […] As pH of the nitrile-amide-conversion composition becomes increasingly basic, the alkali earth metal base degrades increasing amounts of 2,2-dibromo-3-cyanoacetamide. This base-promoted degradation of 2,2-dibromo-3-cyanoacetamide is especially prevalent at pH 9.0 and higher. The invention process advantageously maintains pH of the reaction mixture in situ during conversion of 2,2-dibromo-3-cyanoacetamide to 2,2-dibromomalonamide in a pH range that minimizes or prevents base-promoted degradation of 2,2-dibromo-3-cyanoacetamide while at the same time facilitates the base-catalyzed conversion thereof to 2,2-dibromomalonamide.

SMILES: NC(=O)C(Br)(Br)C(N)=O [2,2-dibromomalonamide]
- stability relative to 2,2-dibromo-3-cyanoacetamide: ≥ 10 times
